Experiments:
[1] = tested on: Spontaneously hypertensive rats; experiment: Blood Pressure Lowering Activity (systolic blood pressure, tail cuff method); assay type: in vivo, rat
Experimental: Blood Pressure Lowering Activity
Systolic blood pressures were recorded by a modification of the tail cuff method described by I. M. Claxton, M. G. Palfreyman, R. H. Poyser, R. L. Whiting, European Journal of Pharmacology, 37, 179 (1976). A W+W BP recorder, model 8005 was used to display pulses. Prior to all measurements rats were placed in a heated environment (33.5°±0.5° C.) before transfer to a restraining cage. Each determination of blood pressure was the mean of at least 6 readings. Spontaneously hypertensive rats (ages 12-18 weeks) with systolic blood pressures>180 mmHg were considered hypertensive.

[2] = tested on: guinea pig tracheal spiral preparations; experiment: Bronchodilation in vitro; guinea pig tracheal spiral preparations; assay type: cell-based; details: Cavia porcellus; for Emax: guinea pig tracheal spirals, relaxation relative to 10^-3 M isoprenaline, read-out: Intrinsic Activity; for IC50: relaxation as percentage of total relaxation by 10^-3 M isoprenaline, cumulative dosing 10^-8 - 2×10^-5 M, 37° C
Experimental: (a) Bronchodilation in vitro; guinea pig tracheal spiral preparations
Male guinea pigs (300-600 g) were stunned by a blow to the head and bled from the carotid artery. The trachea was exposed, dissected free of connective tissue, and transferred to oxygenated krebs solution at 37° C. Next, spirals (2 per trachea) were prepared by cutting the whole trachea spirally along its longitudinal axis and then dividing this spiral lengthwise. Each preparation was mounted, using silk thread, in a 10 ml organ bath filled with krebs solution at 37° C. and bubbled with 5% CO2 with O2. The resting tension of the preparations was set at 2 g and changes in muscle tension were monitored isometrically by means of a UFI (2 oz) force and displacement transducer (Ormed Ltd) connected to a Linseis pen recorder. All preparations were allowed to equilibrate for 60 minutes. During this equilibration period the preparations were washed by upward displacement at 15 minute intervals and, if necessary, the resting tension was readjusted to 2 g using a mechanical micromanipulator system.
Once a steady resting tension had been obtained, the preparations were dosed cumulatively with the test compound (10^-8 -2×10^-5 M), and finally a maximum relaxation achieved by addition of 10^-3 M isoprenaline. The fall in tension evoked by the test compound was expressed as a percentage of the total relaxation evoked in the presence of 10^-3 M isoprenaline. Appropriate concentration-relaxation curves were then constructed and values for potency (IC50) were obtained.
The composition of Krebs solution is: sodium chloride 118.07 mM, sodium hydrogen carbonate 26.19 mM, potassium chloride 4.68 mM, potassium orthophosphate 1.18 mM, magnesium sulphate septahydrate 1.8 mM and calcium chloride 2.52 mM; pH ca. 7.45.

Compound: CC1(C)C=C(n2ccccc2=O)c2cc(C#N)ccc2O1 [Example 2, 6-Cyano-2,2-dimethyl-4-(2(1H)-pyridon-1-yl)-2H-1-benzopyran]
- % Change in Systolic B.P. ([1]; 0.03 mg/kg p.o., 2 h post dose): -41 ± 3%
- % Change in Systolic B.P. ([1]; 0.03 mg/kg p.o., 4 h post dose): -38%
- % Change in Systolic B.P. ([1]; 0.03 mg/kg p.o., 6 h post dose): -32 ± 3%
- Emax [2]: 92%
- IC50 [2]: 100 nM

Compound: CC1(C)C=C(n2ccccc2=O)c2cc(C(F)(F)F)ccc2O1 [Example 5, 2,2-Dimethyl-6-trifluoromethyl-4-(2(1H)-pyridon-1-yl)-2H-1-benzopyran]
- % Change in Systolic B.P. ([1]; 0.03 mg/kg p.o., 1 h post dose): -15 ± 3%
- % Change in Systolic B.P. ([1]; 0.03 mg/kg p.o., 2 h post dose): -20 ± 1%
- % Change in Systolic B.P. ([1]; 0.03 mg/kg p.o., 4 h post dose): -25 ± 3%
- % Change in Systolic B.P. ([1]; 0.03 mg/kg p.o., 6 h post dose): -28 ± 1%
- Emax [2]: 99%
- IC50 [2]: 52 nM

Compound: CC1(C)Oc2ccncc2[C@@H](n2ccccc2=O)[C@@H]1O (relative stereo) [Example 6]
- Emax [2]: 81%
- IC50 [2]: 5500 nM

Compound: CC1(C)C=C(n2ccccc2=O)c2cnccc2O1 [Example 7, 2,2-Dimethyl-4-(2(1H)-pyridon-1-yl)-2H-pyrano[3,2-c]pyridine]
- Emax [2]: 93%
- IC50 [2]: 2400 nM

Compound: CC1(C)Oc2ccc(C#N)cc2[C@@H](n2ccccc2=O)[C@@H]1O (relative stereo) [Example 1, Trans-6-Cyano-3,4-dihydro-2,2-dimethyl-4-(2(1H)-pyridon-1-yl)-2H-1-benzopyran-3-ol]
- % Change in Systolic B.P. ([1]; 0.1 mg/kg p.o., 1 h post dose): -12 ± 5%
- % Change in Systolic B.P. ([1]; 0.1 mg/kg p.o., 2 h post dose): -20 ± 2%
- % Change in Systolic B.P. ([1]; 0.1 mg/kg p.o., 4 h post dose): -21 ± 3%
- % Change in Systolic B.P. ([1]; 0.1 mg/kg p.o., 6 h post dose): -23 ± 5%
- Emax [2]: 96%
- IC50 [2]: 790 nM

Compound: CC1(C)Oc2ccc(C(F)(F)F)cc2[C@@H](n2ccccc2=O)[C@@H]1O (relative stereo) [Example 4, Trans-3,4-Dihydro-2,2-dimethyl-6-trifluoromethyl-4-(2(1H)-pyridon-1-yl)-2H-1-benzopyran-3-ol]
- % Change in Systolic B.P. ([1]; 0.3 mg/kg p.o., 2 h post dose): -42 ± 3%
- % Change in Systolic B.P. ([1]; 0.3 mg/kg p.o., 4 h post dose): -32 ± 5%
- % Change in Systolic B.P. ([1]; 0.3 mg/kg p.o., 6 h post dose): -34%
- Emax [2]: 95%
- IC50 [2]: 540 nM

Compound: CC1(C)C=C(n2ccc(=O)cc2)c2cc(C#N)ccc2O1 [Example 3, 6-Cyano-2,2-dimethyl-4-(4(1H)-pyridon-1-yl)-2H-1-benzopyran]
- % Change in Systolic B.P. ([1]; 3 mg/kg p.o., 1 h post dose): -46 ± 7%
- % Change in Systolic B.P. ([1]; 3 mg/kg p.o., 2 h post dose): -49 ± 3%
- % Change in Systolic B.P. ([1]; 3 mg/kg p.o., 4 h post dose): -63%
- % Change in Systolic B.P. ([1]; 3 mg/kg p.o., 6 h post dose): -57 ± 3%
- Emax [2]: 75%
- IC50 [2]: 11000 nM

— patent US5254557A, “Compound and treatment” (Beecham Group p.l.c., priority 1988, dated 1993)
